Strand notation (5' to 3'): a small letter for the sugar, then the base; units joined by * are phosphorothioate-linked, units joined directly phosphodiester-linked; [ ] holds rarer units or linkages, { } end groups; capitals alone tell only the bases. k = constrained ethyl (cEt); [5mC] = 5-methylcytosine; d = 2'-deoxy (DNA)

The first series relates to Yap1 mRNA. The experiment in a line: Antisense inhibition of human Yap1 in A-431 cells by cEt gapmers, single dose (Example 3, RTS36584). It counts as cell-based. Particulars: Table 8; A-431 cells, 5,000 cells per well, free uptake, 2,000 nM, approximately 48 hours; RTS36584; normalized to RIBOGREEN; Yap1 mRNA relative to untreated control cells. Summed up: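 A-431 cells (5,000/well) took up the 3-10-3 cEt gapmers by free uptake at 2,000 nM for about 48 h. Yap1 mRNA was measured by RT-qPCR with primer probe set RTS36584, normalized to RiboGreen total RNA, and given as % of untreated control.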
On to “958370 (antisense k[5mC]*kT*kT*dT*dA*dT*d[5mC]*dT*dA*dG*d[5mC]*dT*dT*kG*kG*kT) [Compound 958370]”, for which the “YAP1 (% UTC)” value is listed as 7 % UTC.
The same measure, in the same setting: under “958409 (antisense kT*kT*kA*d[5mC]*d[5mC]*dA*dA*dA*dA*d[5mC]*dG*dA*dG*kG*kG*kT) [Compound 958409]” stands 99 % UTC; under “958419 (antisense kT*kA*kA*dG*dA*dG*d[5mC]*d[5mC]*dT*dA*d[5mC]*d[5mC]*dT*kG*kA*k[5mC]) [Compound 958419]”, 68 % UTC.
Same read-out and setting: under “958369 (antisense kT*kT*kA*dT*d[5mC]*dT*dA*dG*d[5mC]*dT*dT*dG*dG*kT*kG*kG) [Compound 958369]” stands 4 % UTC.
Turning to “958353 (antisense kT*k[5mC]*kG*dG*dT*d[5mC]*dT*d[5mC]*d[5mC]*dG*dA*dG*dT*k[5mC]*k[5mC]*k[5mC]) [Compound 958353]”, the “YAP1 (% UTC)” value came out at 43 % UTC.

The series is the same for the next values; noted with them: Table 9; A-431 cells, 5,000 cells per well, free uptake, 2,000 nM, approximately 48 hours; RTS36584; normalized to RIBOGREEN; Yap1 mRNA relative to untreated control cells.
Take “958591 (kT*k[5mC]*kA*d[5mC]*dA*dG*dT*dA*d[5mC]*dT*dG*d[5mC]*dT*kA*k[5mC]*kA; antisense) [Compound 958591]”: the “YAP1 (% UTC)” value is 38 % UTC.
With “958571 (k[5mC]*kA*kA*d[5mC]*dA*dA*d[5mC]*dA*dT*dG*d[5mC]*dT*dA*kT*kG*kT; antisense) [Compound 958571]”, the “YAP1 (% UTC)” value was 43 % UTC.
Take “958661 (kT*kG*k[5mC]*d[5mC]*dG*dT*dT*dG*dG*d[5mC]*d[5mC]*d[5mC]*d[5mC]*kT*k[5mC]*k[5mC]; antisense) [Compound 958661]”: the “YAP1 (% UTC)” value worked out at 120 % UTC.
Regarding “958671 (k[5mC]*kA*kT*dT*dA*dT*dA*dT*dG*dG*d[5mC]*dA*d[5mC]*k[5mC]*k[5mC]*kA; antisense) [Compound 958671]”, the “YAP1 (% UTC)” value amounted to 19 % UTC.
With “958436 (antisense kT*k[5mC]*k[5mC]*d[5mC]*dT*dT*dG*dA*d[5mC]*dG*dG*dA*dG*kG*k[5mC]*k[5mC]) [Compound 958436]”, the “YAP1 (% UTC)” value came to 124 % UTC.

The series is the same for the next values; noted with them: Table 10; A-431 cells, 5,000 cells per well, free uptake, 2,000 nM oligonucleotide, approx. 48 hours; primer probe set RTS36584; Yap1 mRNA normalized to RIBOGREEN, percent of untreated control.
Turning to “958712 (antisense kT*kT*kA*dT*dA*dT*dA*dG*dG*dT*dT*dA*d[5mC]*kA*kG*kA) [Compound 958712]”, the “YAP1 (% UTC)” value came to 52 % UTC.
Turning to “958522 (kA*kA*kT*dT*dA*dG*dT*d[5mC]*d[5mC]*dA*dA*dG*dG*kG*kA*kG; antisense) [Compound 958522]”, the “YAP1 (% UTC)” value is 32 % UTC.

The series is the same for the next values; noted with them: Table 11; A-431 cells, 5,000 cells per well, free uptake, 2,000 nM oligonucleotide, approx. 48 hours; primer probe set RTS36584; Yap1 mRNA normalized to RIBOGREEN, percent of untreated control.
Take “958728 (antisense kT*kA*kT*d[5mC]*dT*dG*dT*d[5mC]*dA*dG*dT*dT*dA*kT*k[5mC]*k[5mC]) [Compound 958728]”: the “YAP1 (% UTC)” value was 10 % UTC.
As for “958503 (kA*kA*k[5mC]*d[5mC]*dA*dT*d[5mC]*d[5mC]*d[5mC]*dA*dA*dG*d[5mC]*kT*kA*k[5mC]; antisense) [Compound 958503]”, the “YAP1 (% UTC)” value stood at 15 % UTC.

The series is the same for the next values; noted with them: Table 12; A-431 cells, 5,000 cells per well, free uptake, 2,000 nM modified oligonucleotide, approx. 48 hours; RTS36584; normalized to RIBOGREEN; Yap1 mRNA relative to untreated control cells.
For the substance “958719 (antisense kG*kT*kA*d[5mC]*dA*dT*dA*dA*dT*dG*dG*dG*d[5mC]*kT*kA*kA) [Compound 958719]”, the “YAP1 (% UTC)” value is 49 % UTC.
For the substance “958769 (antisense k[5mC]*kA*kT*dT*dG*d[5mC]*d[5mC]*dA*d[5mC]*dG*dA*dT*d[5mC]*kT*kA*kA) [Compound 958769]”, the “YAP1 (% UTC)” value amounted to 36 % UTC.
As to “958449 (antisense k[5mC]*k[5mC]*kG*dG*dA*d[5mC]*dG*dG*d[5mC]*dG*dG*dG*d[5mC]*k[5mC]*k[5mC]*kT) [Compound 958449]”, the “YAP1 (% UTC)” value turned out to be 84 % UTC.
In the case of “958714 (antisense kG*kA*kG*d[5mC]*dA*d[5mC]*dT*dG*d[5mC]*dG*d[5mC]*d[5mC]*d[5mC]*kT*kG*kG) [Compound 958714]”, the “YAP1 (% UTC)” value is 82 % UTC.

Still in this series, the particulars now being: Table 13; A-431 cells, 5,000 cells per well, free uptake, 2,000 nM modified oligonucleotide, approx. 48 hours; RTS36584; normalized to RIBOGREEN; Yap1 mRNA relative to untreated control cells.
With “958545 (kA*k[5mC]*kT*d[5mC]*dT*dA*dG*dT*dT*dA*d[5mC]*dA*dT*k[5mC]*kA*kT; antisense) [Compound 958545]”, the “YAP1 (% UTC)” value is reported as 3 % UTC.
Consider “958685 (antisense kA*kG*k[5mC]*dT*dA*dT*dG*dG*dA*dA*dA*dG*dT*kG*kT*k[5mC]) [Compound 958685]”, for which the “YAP1 (% UTC)” value is listed as 24 % UTC.
For “958635 (antisense kG*kT*kT*dT*dA*dG*dG*d[5mC]*dA*dA*dG*d[5mC]*dA*kG*k[5mC]*kT) [Compound 958635]”, the “YAP1 (% UTC)” value is listed as 43 % UTC.
In the case of “958695 (antisense kT*k[5mC]*kA*dA*dT*dT*d[5mC]*dT*d[5mC]*d[5mC]*dA*d[5mC]*d[5mC]*kA*kG*kA) [Compound 958695]”, the “YAP1 (% UTC)” value was 45 % UTC.

The same series, now with this note: Table 26; Yap1 mRNA by 3-10-3 cEt gapmers targeting SEQ ID NO.: 1, and 2; percent of untreated control.
“1075468 (antisense k[5mC]*kA*k[5mC]*d[5mC]*dA*dA*dT*dA*d[5mC]*dT*dG*dA*dG*kT*kA*kT) [compound 1075468]”: the “YAP1 (% UTC)” value is 91 % UTC.
On the same count and under the same terms, the result for “1074412 (k[5mC]*kT*kG*dT*dG*dA*dA*dA*dG*dA*dG*dG*dT*k[5mC]*kA*kG; antisense) [compound 1074412]” reads 55 % UTC; that for “1074700 (antisense kG*kT*kA*dA*dG*dA*d[5mC]*dA*dA*dG*dT*d[5mC]*dT*kT*kT*kA) [compound 1074700]”, 26 % UTC.

The series is the same for the next values; noted with them: Table 27; Yap1 mRNA by 3-10-3 cEt gapmers targeting SEQ ID NO.: 1, and 2; percent of untreated control.
Turning to “1075917 (antisense kA*kG*k[5mC]*dA*dA*dA*dA*dA*dG*dT*dG*dA*dT*kA*kT*kG) [compound 1075917]”, the “YAP1 (% UTC)” value came to 55 % UTC.
As to “1074893 (antisense kG*k[5mC]*kT*dG*dA*dA*dG*dT*dT*dT*dA*dG*d[5mC]*k[5mC]*kT*kG) [compound 1074893]”, the “YAP1 (% UTC)” value worked out at 78 % UTC.
As for “1074829 (kG*kG*kA*dT*dA*dA*dA*dA*dT*d[5mC]*d[5mC]*dA*d[5mC]*k[5mC]*kT*kG; antisense) [compound 1074829]”, the “YAP1 (% UTC)” value is recorded as 92 % UTC.
As for “1075725 (kA*kT*k[5mC]*d[5mC]*dT*dA*dT*d[5mC]*dT*dG*dT*d[5mC]*dA*kG*kT*kT; antisense) [compound 1075725]”, the “YAP1 (% UTC)” value was 18 % UTC.

The series is the same for the next values; noted with them: Table 28; Yap1 mRNA as percent of untreated control; 3-10-3 cEt gapmers targeting SEQ ID NO.: 1, and 2.
Take “1075886 (antisense k[5mC]*kA*kT*dA*dA*d[5mC]*dA*d[5mC]*dT*dG*dA*dA*dG*kG*kT*kG) [compound 1075886]”: the “YAP1 (% UTC)” value is recorded as 60 % UTC.
Still for that read-out and setting: under “1076270 (kT*kA*kA*d[5mC]*dA*dA*dT*dA*dG*dT*dA*dG*dA*k[5mC]*kG*kA; antisense) [compound 1076270]” stands 28 % UTC.

Still in this series, the particulars now being: Table 29; Yap1 mRNA as percent of untreated control; 3-10-3 cEt gapmers targeting SEQ ID NO.: 1, and 2.
For the substance “1074511 (kG*kA*kT*dA*d[5mC]*dA*dT*dT*d[5mC]*d[5mC]*dA*d[5mC]*dT*kA*k[5mC]*k[5mC]; antisense) [compound 1074511]”, the “YAP1 (% UTC)” value turned out to be 9 % UTC.
Take “1076111 (kA*kA*kT*dT*dA*dG*dT*dT*dA*dG*dG*dA*dT*kA*kT*k[5mC]; antisense) [compound 1076111]”: the “YAP1 (% UTC)” value is on record as 67 % UTC.

The series is the same for the next values; noted with them: Table 34; Yap1 mRNA as percent of untreated control; 3-10-3 cEt gapmers targeting SEQ ID NO: 1 and 2; single dose.
For “1076436 (k[5mC]*kA*kT*dT*dA*d[5mC]*dT*dA*d[5mC]*dT*d[5mC]*dT*dG*kT*k[5mC]*k[5mC]; antisense) [compound 1076436]”, the “YAP1 (% UTC)” value was 39 % UTC.

Still in this series, the particulars now being: Table 35; Yap1 mRNA as percent of untreated control; 3-10-3 cEt gapmers targeting SEQ ID NO: 1 and 2; single dose.
In the case of “1074325 (antisense k[5mC]*kG*k[5mC]*dA*dG*dG*dG*d[5mC]*dT*dA*dA*d[5mC]*dT*k[5mC]*k[5mC]*kT) [compound 1074325]”, the “YAP1 (% UTC)” value stood at 42 % UTC.
Turning to “1075925 (antisense kA*kA*k[5mC]*d[5mC]*dT*dA*dT*dA*dT*dT*dA*dT*dT*kT*kG*k[5mC]) [compound 1075925]”, the “YAP1 (% UTC)” value worked out at 28 % UTC.
In the case of “1076181 (kT*kA*kT*dA*dA*dT*dT*dA*dG*d[5mC]*d[5mC]*dA*dA*k[5mC]*k[5mC]*kA; antisense) [compound 1076181]”, the “YAP1 (% UTC)” value was 26 % UTC.
